Test results: PubChem BioAssay AID743417 (Broad Institute, 2014)
Results filed as inconclusive are left out.

System: Clone20 osteoblast Shn3 3'UTR firefly luciferase, 24 h
Assay: Shn3 3'UTR reporter inhibitors, dose response, cell-based, Clone20 osteoblasts, luminescence, dry powder, set 2 (AID 743417)

SMILES | AC50 [nM]
COCCn1c(C)cc(C2=NNC(=NC3CC3)SC2)c1C | < 260
COc1cc(CN2CCc3ccccc3C2)ccc1O | 912
Cc1sc2ncnc(NC3CCN(Cc4ccccc4)CC3)c2c1C | 1020
C[C@@H]1C[C@@H]2O[C@H]2/C=C\C=C\C(=O)Cc2c(Cl)c(O)cc(O)c2C(=O)O1 | 6400
COc1ccccc1-c1cc(C(F)(F)F)nc(S(=O)(=O)CCCC(=O)Nc2cccnc2Cl)n1 | 10600
CCCC(=O)N1CCN(c2ccc(NC(=O)c3cc4ccccc4o3)cc2Cl)CC1 | 4100
COc1ccc(CNC(=O)C(C)n2ccc3cc(S(=O)(=O)N4CCCCCC4)ccc32)cc1 (configuration not stated) | 518
CC(OC(=O)c1ccc(S(C)(=O)=O)c([N+](=O)[O-])c1)C(=O)NC1C2CC3CC(C2)CC1C3 (configuration not stated) | 1400
CC(C)C(=O)NC(c1ccc(Cl)cc1Cl)c1ccc2cccnc2c1O (configuration not stated) | 691
COc1ccc(OC)c2sc(N(CCN(C)C)C(=O)/C=C/c3cccs3)nc12 | 12700
Oc1ccc(CN2CCc3ccccc3C2)c2cccnc12 | 673
COc1cnc(-c2ccccn2)nc1NC(C)C | 2810
CCCCCn1c(=O)c(C(=O)NC(C)c2ccccc2)c(O)c2ccccc21 (configuration not stated) | 11700
NC1=NC[C@@H](CC2CCCCC2)N1CCc1cc(C(F)(F)F)cc(C(F)(F)F)c1 | 9920
COc1cc2c(cc1OC)C1C(=O)c3ccc4c(c3OC1CO2)CC(C(C)C)O4 (configuration not stated) | < 260
O=C(CN(C(=O)c1ccccc1Cl)C1CCCCC1)Nc1ccc(Cl)c([N+](=O)[O-])c1 | 5100
OCCCNc1cc(-c2ccnc(Nc3cccc(Cl)c3)n2)ccn1 | < 260
Cc1[nH]nc2ccc(-c3cncc(OC[C@@H](N)Cc4c[nH]c5ccccc45)c3)cc12 | 1770
O=C(c1nnsc1S(=O)(=O)c1ccc(Cl)cc1)N1CCOCC1 | 7740
CNc1ccccc1C(C)(C)c1cc(-c2cccc(OC)c2)no1 | 1920
CCN(CC)CC(C)(C)C(=O)/C=C/c1ccc(/C=C/C(=O)C(C)(C)CN(CC)CC)cc1 | 468

SMILES | AC50 [nM]
Cc1oc(=O)c(NC(=O)c2ccc(Cl)cc2)cc1C(=O)c1ccccc1 | 32100
Cc1cc(Cl)n2c(nc3cc(F)c(F)cc32)c1C#N | 3560
COc1cc(OC)c(OC)cc1CCC(C)NCCC(c1ccccc1)c1ccccc1 (configuration not stated) | 3990
CC(C)(C)OC(=O)NCc1ccc(CNC(=O)c2nc[nH]c2C(=O)NCc2ccc(CNC(=O)OC(C)(C)C)cc2)cc1 | 5890
O=S(=O)(c1cccs1)N1CCN(CCOc2ccc(Cl)cc2)CC1 | 13800
Cc1cc(/C=C2/SC(=S)N(c3cccc(Cl)c3)C2=O)c(C)n1-c1cccnc1 | 979
CCCS(=O)(=O)Nc1ccc(Nc2c3ccccc3nc3ccccc23)c(OC)c1 | 3390
CCC(=O)c1cn(CC(=O)Nc2ccccc2Cl)c2ccccc12 | < 260
O=C(Nc1ccc([N+](=O)[O-])cc1)Nc1nc(-c2ccc(Cl)s2)cs1 | 3190
Cc1cccc(NC(=O)/C=C/c2ccc([N+](=O)[O-])s2)c1 | 3290
CN(C)CCNC(=O)c1ccc(Cl)c2cc3ccccc3nc12 | 9850
Cc1ccc([N+](=O)[O-])cc1NC(=O)Nc1cccc(F)c1 | 2210
Cc1cccc(Cn2c(NCCO)nc3c2c(=O)n(C)c(=O)n3C)c1 | 528
CN(c1ccccc1)S(=O)(=O)c1ccc(NC(=O)c2nc(S(C)(=O)=O)ncc2Cl)cc1 | 502
CC(=O)NC(c1ccc(C)cc1)c1cc(Cl)c2cccnc2c1O (configuration not stated) | 2120
O=[N+]([O-])c1cccc(S(=O)(=O)NCc2ccncc2)c1 | 3090
COc1ccc(NC(=O)C2Cc3c(-c4cccc(C(C)=O)c4)ccnc3O2)cc1OC (configuration not stated) | 799
Cc1cccc(N2CCN(C(=S)Nc3ccc4nc(N5CCN(C)CC5)cc(C)c4c3)CC2)c1C | 5450
N#Cc1ccc(NC(=O)Nc2ccc(Oc3ccc(NC(=O)Nc4ccc(C#N)cc4)cc3)cc2)cc1 | 2680
O=[N+]([O-])c1c(Nc2cccc(O)c2)cc(Cl)c2nonc12 | 683
Cc1nn(C)c(C(=O)NCc2ccc(Cl)cc2)c1Cl | 1740
